# Test results as given in US9096518B2, “Substituted hydroxamic acids and uses thereof” (Millennium Pharmaceuticals, Inc., priority 2009, dated 2015).
# Target: T1, purified human HDAC6 (Homo sapiens, UniProt Q9UBN7)
# T1 construct: purchased BPS Bioscience 5006
# T1 sequence (Q9UBN7 1-1215): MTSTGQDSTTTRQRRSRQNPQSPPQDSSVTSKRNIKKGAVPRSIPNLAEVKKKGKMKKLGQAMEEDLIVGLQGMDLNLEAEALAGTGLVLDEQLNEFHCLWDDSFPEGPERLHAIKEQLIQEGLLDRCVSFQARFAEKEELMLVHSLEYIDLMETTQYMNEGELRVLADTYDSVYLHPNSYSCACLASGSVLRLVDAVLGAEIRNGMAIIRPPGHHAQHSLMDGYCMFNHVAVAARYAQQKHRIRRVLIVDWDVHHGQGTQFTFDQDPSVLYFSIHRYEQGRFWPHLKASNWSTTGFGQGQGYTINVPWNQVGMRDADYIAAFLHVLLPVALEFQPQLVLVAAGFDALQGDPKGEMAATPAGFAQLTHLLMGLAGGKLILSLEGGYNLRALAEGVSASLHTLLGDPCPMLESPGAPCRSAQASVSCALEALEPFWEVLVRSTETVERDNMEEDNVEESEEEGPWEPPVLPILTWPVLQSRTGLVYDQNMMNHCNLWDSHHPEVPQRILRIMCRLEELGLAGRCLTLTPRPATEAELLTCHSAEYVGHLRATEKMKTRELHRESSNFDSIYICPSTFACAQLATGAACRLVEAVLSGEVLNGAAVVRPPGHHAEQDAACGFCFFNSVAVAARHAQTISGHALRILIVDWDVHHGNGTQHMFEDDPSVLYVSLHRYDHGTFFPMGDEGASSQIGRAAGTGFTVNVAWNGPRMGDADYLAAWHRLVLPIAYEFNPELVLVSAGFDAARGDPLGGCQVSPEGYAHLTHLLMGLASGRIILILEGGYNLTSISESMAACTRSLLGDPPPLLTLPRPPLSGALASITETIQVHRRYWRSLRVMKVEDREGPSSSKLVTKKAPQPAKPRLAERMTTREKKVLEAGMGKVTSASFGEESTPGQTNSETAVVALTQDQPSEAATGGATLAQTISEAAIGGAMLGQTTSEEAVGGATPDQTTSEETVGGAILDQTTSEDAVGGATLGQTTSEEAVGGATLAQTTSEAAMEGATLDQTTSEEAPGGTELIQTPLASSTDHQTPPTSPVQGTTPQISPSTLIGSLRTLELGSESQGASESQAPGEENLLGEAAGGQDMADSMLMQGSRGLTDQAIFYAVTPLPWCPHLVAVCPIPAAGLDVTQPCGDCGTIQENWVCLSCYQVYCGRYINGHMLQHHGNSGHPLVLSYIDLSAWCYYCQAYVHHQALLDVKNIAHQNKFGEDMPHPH
# Assay: HDAC6 Enzyme Assay
# Type: biochemical
# Protocol: To measure the inhibition of HDAC6 activity, purified human HDAC6 (BPS Bioscience; Cat. No. 5006) is incubated with substrate Ac-Arg-Gly-Lys(Ac)-AMC peptide (Bachem Biosciences; Cat. No. I-1925) for 1 hour at 30° C. in the presence of test compounds or vehicle DMSO control. The reaction is stopped with the HDAC inhibitor trichostatin A (Sigma; Cat. No. T8552) and the amount of Arg-Gly-Lys-AMC generated is quantitated by digestion with trypsin (Sigma; Cat. No. T1426) and subsequent measurement of the amount of AMC released using a fluorescent plate reader (Pherastar; BMG Technologies) set at Ex 340 nm and Em 460 nm. Concentration response curves are generated by calculating the fluorescence increase in test compound-treated samples relative to DMSO-treated controls, and enzyme inhibition (IC50) values are determined from those curves.
row,Compound,IC50 [nM]
1,"CC(C)(C)C(=O)N1CCc2cc(C(=O)NO)ccc2C1 [Compound 2, 2-(2,2-dimethylpropanoyl)-N-hydroxy-1,2,3,4-tetrahydroisoquinoline-6-carboxamide]",50 to 100
2,"O=C(NO)c1ccc2c(c1)CCN(C(=O)C1(c3ccc(Cl)cc3)CCC1)C2 [Compound 4, 2-{[1-(4-chlorophenyl)cyclobutyl]carbonyl}-N-hydroxy-1,2,3,4-tetrahydroisoquinoline-6-carboxamide]",< 50
3,"O=C(NO)c1ccc2c(c1)CCN(C(=O)C1CCCCC1)C2 [Compound 5, 2-(cyclohexylcarbonyl)-N-hydroxy-1,2,3,4-tetrahydroisoquinoline-6-carboxamide]",50 to 100
4,"Cc1nc(CC(=O)N2CCc3cc(C(=O)NO)ccc3C2)cs1 [Compound 6, N-hydroxy-2-[(2-methyl-1,3-thiazol-4-yl)acetyl]-1,2,3,4-tetrahydroisoquinoline-6-carboxamide]",100 to 500
5,"O=C(NO)c1ccc2c(c1)CCN(C(=O)c1cnn(-c3ccccc3)c1)C2 [Compound 7, N-hydroxy-2-[(1-phenyl-1H-pyrazol-4-yl)carbonyl]-1,2,3,4-tetrahydroisoquinoline-6-carboxamide]",< 50
6,"O=C(NO)c1ccc2c(c1)CCN(C(=O)c1cc3ccccc3[nH]1)C2 [Compound 8, N-hydroxy-2-(1H-indol-2-ylcarbonyl)-1,2,3,4-tetrahydroisoquinoline-6-carboxamide]",< 50
7,"CC(C)CC(=O)N1CCc2cc(C(=O)NO)ccc2C1 [Compound 9, N-hydroxy-2-(3-methylbutanoyl)-1,2,3,4-tetrahydroisoquinoline-6-carboxamide]",50 to 100
8,"Cc1ccc(C(C)C(=O)N2CCc3cc(C(=O)NO)ccc3C2)cc1 (stereo not shown) [Compound 10, N-hydroxy-2-[2-(4-methylphenyl)propanoyl]-1,2,3,4-tetrahydroisoquinoline-6-carboxamide]",50 to 100
9,"O=C(NO)c1ccc2c(c1)CCN(C(=O)c1ccc(-n3cccc3)cc1)C2 [Compound 14, N-hydroxy-2-[4-(1H-pyrrol-1-yl)benzoyl]-1,2,3,4-tetrahydroisoquinoline-6-carboxamide]",50 to 100
10,"Cc1noc(C)c1CC(=O)N1CCc2cc(C(=O)NO)ccc2C1 [Compound 16, 2-[(3,5-dimethylisoxazol-4-yl)acetyl]-N-hydroxy-1,2,3,4-tetrahydroisoquinoline-6-carboxamide]",50 to 100
11,"CC(=O)N[C@H](CC(C)C)C(=O)N1CCc2cc(C(=O)NO)ccc2C1 [Compound 17, 2-[(2R)-2-(acetylamino)-4-methylpentanoyl]-N-hydroxy-1,2,3,4-tetrahydroisoquinoline-6-carboxamide]",100 to 500
12,"Cc1c(C(=O)N2CCc3cc(C(=O)NO)ccc3C2)cnn1-c1ccccc1 [Compound 18, N-hydroxy-2-[(5-methyl-1-phenyl-1H-pyrazol-4-yl)carbonyl]-1,2,3,4-tetrahydroisoquinoline-6-carboxamide]",50 to 100
13,"C=CC(C)C(=O)N1CCc2cc(C(=O)NO)ccc2C1 (stereo not shown) [Compound 19, N-hydroxy-2-(2-methylbut-3-enoyl)-1,2,3,4-tetrahydroisoquinoline-6-carboxamide]",50 to 100
14,"O=C(NO)c1ccc2c(c1)CCN(C(=O)COc1ccccc1)C2 [Compound 21, N-hydroxy-2-(phenoxyacetyl)-1,2,3,4-tetrahydroisoquinoline-6-carboxamide]",50 to 100
15,"CC1(C(=O)N2CCc3cc(C(=O)NO)ccc3C2)CC1 [Compound 23, N-hydroxy-2-(1-methylcyclopropanecarbonyl)-1,2,3,4-tetrahydroisoquinoline-6-carboxamide]",50 to 100
16,"O=C(NO)c1ccc2c(c1)CCN(C(=O)C1CC=CCC1)C2 (stereo not shown) [Compound 26, 2-(cyclohex-3-en-1-ylcarbonyl)-N-hydroxy-1,2,3,4-tetrahydroisoquinoline-6-carboxamide]",100 to 500
17,"CC1(C(=O)N2CCc3cc(C(=O)NO)ccc3C2)CCCCC1 [Compound 28, N-hydroxy-2-[(1-methylcyclohexyl)carbonyl]-1,2,3,4-tetrahydroisoquinoline-6-carboxamide]",100 to 500
18,"C[C@H](C(=O)N1CCc2cc(C(=O)NO)ccc2C1)c1ccccc1 [Compound 29, N-hydroxy-2-[(2S)-2-phenylpropanoyl]-1,2,3,4-tetrahydroisoquinoline-6-carboxamide]",50 to 100
19,"O=C(NO)c1ccc2c(c1)CCN(C(=O)Cc1ccc(-c3ccccc3)cc1)C2 [Compound 30, 2-(biphenyl-4-ylacetyl)-N-hydroxy-1,2,3,4-tetrahydroisoquinoline-6-carboxamide]",< 50
20,"Cc1cc(C)n(CC(=O)N2CCc3cc(C(=O)NO)ccc3C2)n1 [Compound 31, 2-[(3,5-dimethyl-1H-pyrazol-1-yl)acetyl]-N-hydroxy-1,2,3,4-tetrahydroisoquinoline-6-carboxamide]",100 to 500

# Continued, values first:
row,IC50 [nM],Compound
1,< 50,"Cn1cccc1C(=O)N1CCc2cc(C(=O)NO)ccc2C1 [Compound 1, N-hydroxy-2-[(1-methyl-1H-pyrrol-2-yl)carbonyl]-1,2,3,4-tetrahydroisoquinoline-6-carboxamide]"
2,50 to 100,"O=C(NO)c1ccc2c(c1)CCN(C(=O)Cc1ccc(C(F)(F)F)cc1)C2 [Compound 3, N-hydroxy-2-{[4-(trifluoromethyl)phenyl]acetyl}-1,2,3,4-tetrahydroisoquinoline-6-carboxamide]"
3,50 to 100,"O=C(NO)c1ccc2c(c1)CCN(C(=O)c1cccc3ccccc13)C2 [Compound 12, N-hydroxy-2-(1-naphthoyl)-1,2,3,4-tetrahydroisoquinoline-6-carboxamide]"
4,> 500,"O=C(NO)c1ccc2c(c1)CCN(C(=O)CCn1ccc3ccccc31)C2 [Compound 13, N-hydroxy-2-[3-(1H-indol-1-yl)propanoyl]-1,2,3,4-tetrahydroisoquinoline-6-carboxamide]"
5,50 to 100,"O=C(NO)c1ccc2c(c1)CCN(C(=O)Cc1ccccc1)C2 [Compound 15, N-hydroxy-2-(phenylacetyl)-1,2,3,4-tetrahydroisoquinoline-6-carboxamide]"
6,100 to 500,"CC(N)(Cc1ccccc1)C(=O)N1CCc2cc(C(=O)NO)ccc2C1 (stereo not shown) [Compound 20, 2-(2-amino-2-methyl-3-phenylpropanoyl)-N-hydroxy-1,2,3,4-tetrahydroisoquinoline-6-carboxamide]"
7,50 to 100,"O=C(NO)c1ccc2c(c1)CCN(C(=O)C1CCCCCC1)C2 [Compound 22, 2-(cycloheptylcarbonyl)-N-hydroxy-1,2,3,4-tetrahydroisoquinoline-6-carboxamide]"
8,100 to 500,"O=C(NO)c1ccc2c(c1)CCN(C(=O)C1CCOC1)C2 (stereo not shown) [Compound 24, N-hydroxy-2-(tetrahydrofuran-3-ylcarbonyl)-1,2,3,4-tetrahydroisoquinoline-6-carboxamide]"
9,< 50,"O=C(NO)c1ccc2c(c1)CCN(C(=O)CC1CCCC1)C2 [Compound 25, 2-(cyclopentylacetyl)-N-hydroxy-1,2,3,4-tetrahydroisoquinoline-6-carboxamide]"
10,< 50,"CC(C)C(C(=O)N1CCc2cc(C(=O)NO)ccc2C1)c1ccccc1 (stereo not shown) [Compound 27, N-hydroxy-2-(3-methyl-2-phenylbutanoyl)-1,2,3,4-tetrahydroisoquinoline-6-carboxamide]"
11,< 50,"O=C(NO)c1ccc2c(c1)CCN(C(=O)C1CCCC1)C2 [Compound 32, 2-(cyclopentylcarbonyl)-N-hydroxy-1,2,3,4-tetrahydroisoquinoline-6-carboxamide]"
